Data set [1] in a line: Encapsulation efficiency of loaded LNPs, RiboGreen RNA assay (Method A). In kind it is physicochemical. To be noted: encapsulation efficiency of mRNA-loaded LNP, Method A, RiboGreen. As for the experimental part:
(§1) The synthesized lipids were tested in term of in vitro transfection efficacy and toxicity on HeLa cells. In order to perform the mentioned biological tests, appropriate LNPs had to be formulated from the synthesized lipids. The formulation technique was different in Method A and B. The particle size, polydispersity index (PDI) and zeta potential of resulting LNPs were determined by means of Dynamic Light Scattering technique (DLS). Prior to biological testing the encapsulation efficiency (EE) of the loaded LNPs was determined by using RiboGreen RNA assay. In case of Method A Luc mRNA while in case of Method B GFP mRNA was transfected into the cells. In parallel with the transfection experiments, toxicity of the investigated LNPs was determined, in case of Method A resazurin assay while in case of Method B MTT assay was used. Additionally, the toxicity of the lipids was investigated on HepG2 cells and IC50 values were determined.
• 1. Preparation of sample stock solutions: In the top row of the 96-well plate (Row A in the plate), add 297 μL of TE buffer pH 7.4 (see Table 1) to a single well for each sample plus a single well for a PBS blank using a multichannel pipette.
• 2. Add 3 μL of sample (at 0.5 mg/ml) to these wells for a final volume of 300 μL. Add 3 μL of PBS to the blank well. Pipette to mix. This is your stock solution for each sample. The final RNA concentration of these stock solutions should be approximately 4-7 μg/mL. • 3. mRNA-LNP sample setup: • a. Add 50 μL of TE buffer pH 7.5 to the two wells directly below each sample (Rows B and C in the plate). • b. Add 50 μL of sample stock solution from Row A into the wells in Rows B and C (this assay is run in duplicate. All liquid handling should be done using a multichannel pipette). • c. Add 50 μL of Triton buffer to the wells in Rows D and E (in the plate) below each sample. • d. Add 50 μL of sample stock solution from Row A into the wells in Rows D and E. • 4. RiboGreen RNA standard curve setup: Dilute the RNA standard to produce an RNA stock at a final concentration of 20 μg/mL in TE buffer pH 7.4. The final volume should be 150 μL. Set up a standard curve (in duplicate) as using the RNA stock (20 μg/mL siRNA), TE buffer pH 7.5, and Triton X-100 buffer according the Table 2 and Table 3 below.
• 5. Once samples and standard curve are plated, incubate the plate at 37° C. for 10 min to lyse mRNA-LNP in the presence of Triton X-100 buffer. • 6. Meanwhile, prepare RiboGreen Solution: Sum the total number of sample wells and standard curve wells. Add three to this number, and multiply the total by 100. This is the total volume, in μL, of RiboGreen Solution needed for this assay. In a 15 mL RNAse-free Falcon tube, dilute the RiboGreen Reagent 1:100 into TE buffer pH 7.5 to the total volume calculated. • 7. Addition of RiboGreen Solution and sample readings: Remove a 96-well plate from 37° C. incubator; let it cool to room temperature as RiboGreen binding is somewhat temperature dependent. Add 100 μL of RiboGreen Solution to each well. Pop any air bubbles with a needle. Read using fluorescent plate reader (excitation=480, emission=525). • 8. Sample analysis: Use the data generated by the RiboGreen standard curve to calculate the concentration of mRNA. Transfection Efficiency with Luciferase-mRNA (Method A)

Data set [2] in a line: LNP size, PDI and zeta potential by Dynamic Light Scattering (Method A). In kind it is physicochemical. Conditions: LNP formulated with the lipid, DLS. As to the method: as §1
• 1. If needed, prepare stock solutions by solving known amounts of lipid powder into an appropriate solvent. The recommended solvent is ethanol and the recommended concentration is typically in the range 10-50 mM. Higher concentrations are preferred to allow flexibility on mRNA-LNP concentration. • 2. Remove the lipid stock solutions from the −20° C. freezer. For long-term storage, −80° C. is used. • 3. Check the vials for precipitation, DOPE (CAS #4004-05-1) (20 mM) and DSPE-PEG (CAS #474922-26-4) (5 mM) may need a 5-30 minute incubation step at 37° C. with intermittent vortexing to resuspend all contents. […] As a last resort, lipids may be heated to 50° C. to resuspend, time should be kept as short as possible to prevent oxidation or other modifying or degradative processes. • 4. Mix the lipids by vortexing for 2 minutes. • 5. […] Cooling the solution prevent excessive evaporation of ethanol or similar solvents upon opening. • 6. Meanwhile, thaw the RNA samples, including the latest SecNLuc control, by inserting the frozen tube in a room temperature aluminium block. • 7. Prepare for each LNP-formulation with identical mRNA component, an RNA master mix according to Table 1 below in a fresh tube. Use of a master mix allows more precise comparison of lipid formulations relative to each other. Split the master mix over a number of fresh tubes equal to the number of samples+controls. Each tube contains 375 μl of mRNA in 10 mM Citrate pH 4.0. • 8. Prepare for each LNP formulation with identical lipid composition a Lipid master mix according to Table 1 below in a fresh tube, exclude the lipid of interest. Use of a master mix allows more precise comparison of the novel ionizable lipid relative to each other. Split the master mix over a number of fresh tubes equal to the number of samples+controls. Each tube contains 65.5 μl of lipid master mix. • 9. Add the ionizable lipid of interest to the equally divide lipid master mix. Mix well by pipetting up and down. Label the tube according to the ionizable lipid used. • 10. Power on the L1 FM (L1 Formulation Machine uses 2 high-speed syringe pumps to mix lipids in organic solvents with mRNA in acidic aquous solution to generate well-defined LNPs. The microfluidic mixing chip involves a dean-type structure performing the high-efficiency mixing at a total flow rate (TFR) of around 12 ml/min at a 3:1 mixing ratio) and allow it to do a calibration of motor positions.
• 18. Fill a fresh syringe (C) through a blunt 18G stainless steel needle with the previously prepared RNA mixture of step 6. The volume should be approximately 85% of total formulation volume+25 μl (dead-volume). Make sure to remove all air bubbles by tapping. • 19. Fill a fresh syringe (D) through a blunt 18G stainless steel needle with the Lipid master mix. The volume should be approximately […] of total formulation volume+25 μl (dead-volume). Again, Make sure to remove all bubbles. • 20. Attach the syringes in the correct orientation, syringe A on the left and syringe B on the right • 21.

`CCCCC/C=C\C/C=C\CCCCCCCCOC(CCCCCCC/C=C\CCCCCCCC)O[Si](C)(C)OCCCCCCN(CCO)CCO` (centres unmarked) [Example 46, (23Z,26Z)-13-((Z)-heptadec-8-en-1-yl)-3-(2-hydroxyethyl)-11,11-dimethyl-10,12,14-trioxa-3-aza-11-siladotriaconta-23,26-dien-1-ol]: the “EE (%)” value in data set [1] is 81%. Further, in data set [2], the PDI amounted to 0.095, the “Size (nm)” value is on record as 129.4 nm and the “Zeta potential (mV)” value is −7.772 mV.
For `CCCCCCCC/C=C\CCCCCCCCOC(CCCCCCC/C=C\CCCCCCCC)O[Si](C)(C)OCCCCCCN(CCO)CCO` (centres unmarked) [Example 47, (Z)-13-((Z)-heptadec-8-en-1-yl)-3-(2-hydroxyethyl)-11,11-dimethyl-10,12,14-trioxa-3-aza-11-siladotriacont-23-en-1-ol], in that order: 88%, 0.014, 125.0 nm and −8.469 mV.
In the case of `CCCCC/C=C\C/C=C\CCCCCCCCOC(CCCCCCC/C=C\C/C=C\CCCCC)O[Si](C)(C)OCCCCCCN(CCO)CCO` (centres unmarked) [Example 48, (23Z,26Z)-13-((8Z,11Z)-heptadeca-8,11-dien-1-yl)-3-(2-hydroxyethyl)-11,11-dimethyl-10,12,14-trioxa-3-aza-11-siladotriaconta-23,26-dien-1-ol], in data set [1], the “EE (%)” value is reported as 85%. In data set [2], the PDI is 0.052, the “Size (nm)” value came to 149.6 nm and the “Zeta potential (mV)” value is on record as −7.501 mV.
For `CCCCCCCCCCCCCCCCOC(CCCCCCCCCCCCCCC)O[Si](C)(C)OCCCCCCN(CCO)CCO` (centres unmarked) [Example 49, 3-(2-hydroxyethyl)-11,11-dimethyl-13-pentadecyl-10,12,14-trioxa-3-aza-11-silatriacontan-1-ol], in that order: 84%, 0.396, 171.9 nm and −12.77 mV.
For `CCCCCCCC/C=C\CCCCCCCC(OCC(CCCCCC)CCCCCCCC)O[Si](C)(C)OCCCCCCN(CCO)CCO` (centres unmarked) [Example 50, (Z)-13-(heptadec-8-en-1-yl)-16-hexyl-3-(2-hydroxyethyl)-11,11-dimethyl-10,12,14-trioxa-3-aza-11-silatetracosan-1-ol], in that order: 86%, 0.022, 153.8 nm and −10.38 mV.
`CCCCCCCC/C=C\CCCCCCCCOC(CC[C@@H](C)C1CCC2C3CCC4C[C@H](OC)CC[C@]4(C)C3CC[C@@]21C)O[Si](C)(C)OCCCCCCN(CCO)CCO` (stereo partly drawn) [Example 51, (Z)-3-(2-hydroxyethyl)-13-((3R)-3-((3R,10S,13R)-3-methoxy-10,13-dimethylhexadecahydro-1H-cyclopenta[a]phenanthren-17-yl)butyl)-11,11-dimethyl-10,12,14-trioxa-3-aza-11-siladotriacont-23-en-1-ol]: the “EE (%)” value in data set [1] worked out at 89%. Besides, in data set [2], the PDI was determined as 0.060, the “Size (nm)” value stood at 135.6 nm and the “Zeta potential (mV)” value is reported as −8.124 mV.
For `CCCCC/C=C\C/C=C\CCCCCCCCOC(CC[C@@H](C)C1CCC2C3CCC4C[C@H](OC)CC[C@]4(C)C3CC[C@@]21C)O[Si](C)(C)OCCCCCCN(CCO)CCO` (stereo partly drawn) [Example 52, (23Z,26Z)-3-(2-hydroxyethyl)-13-((3R)-3-((3R,10S,13R)-3-methoxy-10,13-dimethylhexadecahydro-1H-cyclopenta[a]phenanthren-17-yl)butyl)-11,11-dimethyl-10,12,14-trioxa-3-aza-11-siladotriaconta-23,26-dien-1-ol], in that order: 86%, 0.005, 137.6 nm and −9.231 mV.
For `CCCCC/C=C\C/C=C\CCCCCCCCOC(CCCCCCC/C=C\C/C=C\CCCCC)O[Si](C)(C)OCCCCCCN1CCOCC1` (centres unmarked) [Example 55, 4-((20Z,23Z)-10-((8Z,11Z)-heptadeca-8,11-dien-1-yl)-8,8-dimethyl-7,9,11-trioxa-8-silanonacosa-20,23-dien-1-yl)morpholine], in that order: 21%, 0.441, 319.9 nm and −10.81 mV.
For `CCCCC/C=C\C/C=C\CCCCCCCCOC(CCCCCCC/C=C\C/C=C\CCCCC)O[Si](C)(C)OCCCCCCN(C)CCO` (centres unmarked) [Example 56, (23Z,26Z)-13-((8Z,11Z)-heptadeca-8,11-dien-1-yl)-3,11,11-trimethyl-10,12,14-trioxa-3-aza-11-siladotriaconta-23,26-dien-1-ol], in that order: 85%, 0.057, 149.5 nm and −10.08 mV.
Turning to `CCCCC/C=C\C/C=C\CCCCCCCCOC(CCCCCCC/C=C\C/C=C\CCCCC)O[Si](C)(C)OCCCCCCN1CCCCC1` (centres unmarked) [Example 57, 1-((20Z,23Z)-10-((8Z,11Z)-heptadeca-8,11-dien-1-yl)-8,8-dimethyl-7,9,11-trioxa-8-silanonacosa-20,23-dien-1-yl)piperidine], the “EE (%)” value in data set [1] came to 87%. In data set [2], the PDI turned out to be 0.041, the “Size (nm)” value was 160.3 nm and the “Zeta potential (mV)” value is listed as −11.06 mV.
For `CCCCC/C=C\C/C=C\CCCCCCCCOC(CCCCCCC/C=C\C/C=C\CCCCC)O[Si](C)(C)OCCCCCCN1CCN(CCO)CC1` (centres unmarked) [Example 58, 2-(4-((20Z,23Z)-10-((8Z,11Z)-heptadeca-8,11-dien-1-yl)-8,8-dimethyl-7,9,11-trioxa-8-silanonacosa-20,23-dien-1-yl)piperazin-1-yl)ethan-1-ol], in that order: 86%, 0.011, 160.6 nm and −11.86 mV.

The record behind these values is patent US20260109721A1, “IONIZABLE CATIONIC LIPIDS INCORPORATING SILICON: SYNTHESIS AND LNP FORMULATION” (priority 2023, published 2026).
